Read-outs that look alike come from different tables or passages of the source.
Legend:
[1] = Pharmacokinetics, plasma level by HPLC (MGF001); type: in vivo, Wistar male rats; settings: rat, 2mg/kg/os
Experimental: (§1) The presence of said substance in plasma was detected by HPLC.
(§2) With the optimized method the detection limit was of 0.15 µg per ml of plasma.

rabbit [2] = test: Effect on the duration of the curarization by succinylcholine (class D derivatives); type: in vivo; settings: anesthetized rabbit, 0.5 mg intravenous
[3] = tested on: acetylcholinesterase (AchE); type: in vivo, Wistar male rats; settings: rat; for inhibitory acetylcholinesterase activity (in words): oral, 1-2 mg/kg
SWISS male mice [4] = test: Electroencephalographic activity (class D derivatives); type: in vivo; settings: 3mg/kg/os, in the course of the successive 30 minutes
mice (Swiss strain) [5] = test: Acute toxicity, LD50 by oral route in mice (class D derivatives); type: in vivo; settings: mouse, suspension in 2 % carboxymethylcellulose, observation 7 days
Source text: The letal doses 50 (LD50) by oral route (suspension in 2 % carboxymethylcellulose) are reported hereinbelow: TABLE 6

mouse [6] = test: Spontaneous motility, Dews method modified according to Carminati (class D derivatives); type: in vivo; settings: mouse (Swiss)
Source text: (§3) The Dews method was used, modified according to Carminati (Arch. int. Pharmacodyn. et Thér 181, 68,1969).

[7] = Pharmacokinetics after oral and intramuscular administration (class F derivatives); type: in vivo; settings: rats; for maximum peak / time of the maximum peak after the oral administration: oral administration 7 mg/kg
Experimental: The kinetics of MGR001, MGR002, and MGR003 is determined in rats after oral administration and intramuscular of respectively 7 and 3.5 mg/kg. The maximum peak of 30 µg/ml is found 1 hour after the oral administration.

[8] = tested on: mice (Swiss strain of both sexes); test: Acute toxicity, LD50 by oral administration in mice (class F derivatives); settings: mice, oral administration
motor activity [9] = test: Antagonistic effect on the stimulating effect of scopolamine (class F derivatives); type: in vivo; settings: scopolamine 1 mg/kg; for oral dose countering the stimulating effect of scopolamine: oral administration
Experimental: At the dose of 1 mg/kg the scopolamine produce a clear stimulating effect (100 % of motor activity increase). This is countered by the oral administration of 2.5 mg of the three products MGR001, MGR002 and MGR003.

[10] = molecular target: T1, AChE (acetylcholinesterase) on the mouse brain (Mus musculus, UniProt P21836); test: Inhibition of AChE on the mouse brain after single doses (class F derivatives); type: in vivo; settings: single doses (0.4-7 mg/kg)
T1 construct: from tissue; host or cells: mouse brain
T1 sequence (P21836 32-614): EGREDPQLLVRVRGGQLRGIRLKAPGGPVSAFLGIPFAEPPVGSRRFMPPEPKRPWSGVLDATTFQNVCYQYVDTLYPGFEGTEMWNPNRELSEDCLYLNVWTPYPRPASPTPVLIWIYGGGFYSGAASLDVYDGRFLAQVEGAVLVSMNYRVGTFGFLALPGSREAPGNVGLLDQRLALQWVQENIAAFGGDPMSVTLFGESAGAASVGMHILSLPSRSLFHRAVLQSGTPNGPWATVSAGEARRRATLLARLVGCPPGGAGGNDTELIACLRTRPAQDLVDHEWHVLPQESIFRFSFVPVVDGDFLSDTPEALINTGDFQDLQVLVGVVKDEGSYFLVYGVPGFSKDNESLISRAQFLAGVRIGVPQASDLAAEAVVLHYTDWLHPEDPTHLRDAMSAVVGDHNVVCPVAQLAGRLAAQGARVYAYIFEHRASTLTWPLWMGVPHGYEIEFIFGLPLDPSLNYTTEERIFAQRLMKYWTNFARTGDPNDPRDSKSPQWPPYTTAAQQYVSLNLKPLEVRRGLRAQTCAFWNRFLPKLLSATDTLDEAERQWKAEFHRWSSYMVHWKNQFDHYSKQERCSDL

mouse [11] = test: Spontaneous motility, Dews method modified according to Carminati (class A derivatives); type: in vivo; settings: mouse (Swiss), oral, starting from minimum doses of 4-6 mg/kg
Source text: as §3

[12] = tested on: acetylcholinesterase (AchE); type: in vivo, Wistar male rats; settings: rat; for inhibitory cerebral and serumal acetylcholinesterase activity (in words): oral, 1.5 to 4.5 mg/kg
rabbit [13] = test: Effect on the duration of the curarization by succinylcholine (class A derivatives); type: in vivo; settings: anesthetized rabbit, 0.8 mg/kg intravenous
Source text: . […] By using the same method (male rabbits of the tawny strain of Bourgogne; […]

mice (Swiss strain) [14] = test: Acute toxicity, LD50 by oral route in mice (class A derivatives); type: in vivo; settings: mouse, suspension in 2 % carboxymethylcellulose, observation 7 days
Source text: The letal doses 50 (LD50) by oral route (suspension in 2 % carboxymethylcellulose) are reported herinbelow: TABLE 1

[15] = Pharmacokinetics, plasma level by HPLC (MGS101); type: in vivo, Wistar male rats; settings: rat, 6 mg/kg/os
Experimental: as §1, §2

SWISS male mice [16] = test: Electroencephalographic activity (class A derivatives); type: in vivo; settings: 6 mg/kg/os, in the course of the successive 30 minutes
motor activity [17] = test: Antagonistic effect on the stimulating effect of scopolamine (class B derivatives); type: in vivo; settings: scopolamine 1 mg/kg
Experimental: At the dose of 1 mg/kg, scopolamine produces an evident stimulating effect (100% increase in motor activity).
This effect is countered by the oral administration of 2.5 mg of the above mentioned compounds.

motor activity [18] = test: Antagonist effect on the stimulating effect of scopolamine (class C derivatives); type: in vivo; settings: scopolamine 1 mg/kg
Experimental: This is countered by the oral administration of 2.5 mg of ES001, ES002, ES003.

[19] = acetylcholinesterase inhibition 20 minutes after oral administration, limits in brackets

With `CNCCCCCCCNC(=O)Oc1ccc2c(c1)[C@]1(C)CCN(C)[C@@H]1N2C` [MGF001, (3a S-cis) - 1,2,3,3a,8,8a hexahydro - 1,3a,8 - trimethyl pyrrol [2,3-b]-indol-5-ol-N-methyl-aminoheptyl carbamate ester] the “concentration in plasma after 20 minutes” value [1] was 11.48 ± 2.23 µg/mL, the “concentration in plasma after 120 minutes” value [1] was 28.41 ± 8.40 µg/mL and the “concentration in plasma after 12 hours” value [1] was 10.64 ± 5.46 µg/mL. The “maximum peak in plasma” value [1] was 47.60 ± 9.12 µg/mL, the “time of the maximum peak in plasma” value [1] was 90 ' and the “curare effect of succinylcholine compared with physostigmine” value (rabbit [2]) was “prolonged in the same way as physostigmine the curare effect of succinylcholine”. The “INHIBITION % OF ACETYLCHOLINESTERASE (AchE) after 60 minutes brain” value ([3]; 2 mg/kg/OS) was 46.38 ± 4.12%, the “INHIBITION % OF ACETYLCHOLINESTERASE (AchE) after 60 minutes serum” value ([3]; 2 mg/kg/OS) was 42.6 ± 5.28% and the “INHIBITION % OF ACETYLCHOLINESTERASE (AchE) after 120 minutes brain” value ([3]; 2 mg/kg/OS) was 25.45 ± 2.18%. For the same compound, the “INHIBITION % OF ACETYLCHOLINESTERASE (AchE) after 120 minutes serum” value ([3]; 2 mg/kg/OS) was 19.83 ± 4.27%, the “ED50 (mg/kg/os) brain” value [3, 19] was 1.83 (1.14 - 2.94) mg/kg/os and the “ED50 (mg/kg/os) serum” value [3, 19] was 1.90 (1.13 - 3.20) mg/kg/os. For the same compound, the “inhibitory acetylcholinesterase activity (in words)” value [3] was “clear inhibitory dose-dependent and reversible”, the “modifications of the electroencephalogram” value (SWISS male mice [4]) was “increase of the amplitude and a decrease of the frequency of the electroencephalogram” and the LD50 per os (mice (Swiss strain) [5]) was 461.44 ± 51.33 mg/kg. For the same compound, the “oral dose causing a significant decrease of the spontaneous motility” value (“oral dose causing a significant decrease” for short) (mouse [6]) was 2.5 to 5 mg/kg.

For `CNCCCCCNC(=O)Oc1ccc2c(c1)[C@]1(C)CCN(C)[C@@H]1N2C` [MGF002, (3a S-cis) - 1,2,3,3a,8,8a hexahydro - 1,3a,8 - trimethyl pyrrol [2,3,b]-indol-5-ol-N-methyl-aminopentyl carbamate ester], the “curare effect of succinylcholine compared with physostigmine” value (rabbit [2]) was “prolonged in the same way as physostigmine the curare effect of succinylcholine”, the “inhibitory acetylcholinesterase activity (in words)” value [3] was “clear inhibitory dose-dependent and reversible” and the LD50 per os (mice (Swiss strain) [5]) was 436.72 ± 23.45 mg/kg. The “oral dose causing a significant decrease” value (mouse [6]) was 2.5 to 5 mg/kg.

In the case of `CN1CC[C@@]2(C)c3cc(OC(=O)NCCCCCCCN)ccc3N(C)[C@@H]12` [MGF005, (3a S-cis) - 1,2,3,3a,8,8a hexahydro - 1,3a,8 - trimethyl pyrrol [2,3,b]-indol-5-ol-amino heptyl carbamate ester], the “inhibitory acetylcholinesterase activity (in words)” value [3] is reported as “clear inhibitory dose-dependent and reversible”, the LD50 per os (mice (Swiss strain) [5]) is reported as 428.42 ± 56.21 mg/kg and the “oral dose causing a significant decrease” value (mouse [6]) is reported as 2.5 to 5 mg/kg.

In the case of `CC(=O)OCC(COP(=O)(O)OCCNC(=O)Oc1ccc2c(c1)[C@]1(C)CCN(C)[C@@H]1N2C)OC(C)=O` (stereo partly drawn) [MGR001, (3aS-cis) 1,2,3,3a,8,8a-hexahydro-1,3a,8 trimethyl-pyrrol-[2,3-b]-indol-5-ol-diacetylglycerylphosphoryl-ethyl carbamate ester], the “liver kinetics / excretion” value [7] is reported as “pass through into the urine unchanged”, the maximum peak [7] is reported as 30 µg/mL and the “time of the maximum peak after the oral administration” value (“time … after the oral administration” for short) [7] is reported as 1 h. The LD50 [8] was 500 mg/kg, the “oral dose countering the stimulating effect of scopolamine” value (motor activity [9]) was 2.5 mg and the “inhibition of AChE (acetylcholinesterase) on the mouse brain (in words)” value (“inhibition of AChE” for short) [10] was “dose-dependence and reversible inhibition”.

In the case of `CN1CC[C@@]2(C)c3cc(OC(=O)NCCOP(=O)(O)OCC(O)CO)ccc3N(C)[C@@H]12` (stereo partly drawn) [MGR002, (3aS-cis) 1,2,3,3a,8,8a-hexahydro-1,3a,8 trimethyl-pyrrol-[2,3-b]-indol-5-ol-glycerylphosphoryl-ethyl carbamate ester], the “liver kinetics / excretion” value [7] is reported as “pass through into the urine unchanged”, the maximum peak [7] is reported as 30 µg/mL and the “time … after the oral administration” value [7] is reported as 1 h. For the same compound, the LD50 [8] was 485 mg/kg, the “oral dose countering the stimulating effect of scopolamine” value (motor activity [9]) was 2.5 mg and the “inhibition of AChE” value [10] was “dose-dependence and reversible inhibition”.

For `CC(=O)OCC(COP(=O)(O)OC[C@H](NC(=O)Oc1ccc2c(c1)[C@]1(C)CCN(C)[C@@H]1N2C)C(=O)O)OC(C)=O` (stereo partly drawn) [MGR003, (3aS-cis) 1,2,3,3a,8,8a-hexahydro - 1,3a,8 trimethyl-pyrrol-[2,3-b]-indol-5-ol-diacetyl-glycerylphosphoryl-2L -carboxylethyl carbamate ester], the maximum peak [7] was 30 µg/mL, the “time … after the oral administration” value [7] was 1 h and the LD50 [8] was 350 mg/kg. For the same compound, the “oral dose countering the stimulating effect of scopolamine” value (motor activity [9]) was 2.5 mg and the “inhibition of AChE” value [10] was “dose-dependence and reversible inhibition”.

In the case of `CC[C@H](C)[C@H](NC(=O)Oc1ccc2c(c1)[C@]1(C)CCN(C)[C@@H]1N2C)C(=O)O` [MGS101], the “decrease of the spontaneous motility (on average)” value (mouse [11]) is reported as about -30%, the “INHIBITION % OF ACETYLCHOLINESTERASE (AchE) after 60 minutes brain” value ([12]; 3.5 mg/kg/OS) is reported as 38.71 ± 6.12% and the “INHIBITION % OF ACETYLCHOLINESTERASE (AchE) after 60 minutes serum” value ([12]; 3.5 mg/kg/OS) is reported as 31.6 ± 4.25%. For the same compound, the “INHIBITION % OF ACETYLCHOLINESTERASE (AchE) after 120 minutes serum” value ([12]; 3.5 mg/kg/OS) was 20.12 ± 2.40%, the “ED50 (mg/kg/os) brain” value [12, 19] was 2.89 (1.83 - 4.59) mg/kg/os and the “ED50 (mg/kg/os) serum” value [12, 19] was 2.89 (1.82 - 4.49) mg/kg/os. For the same compound, the “inhibitory cerebral and serumal acetylcholinesterase activity (in words)” value [12] was “clear inhibitory dose-dependent and reversible”, the “effect on the curarization by succinylcholine compared with physostigmine” value (rabbit [13]) was “induced the same anticholinesterase effect of physostigmine” and the LD50 per os (mice (Swiss strain) [14]) was 332.8 ± 6.20 mg/kg. The “concentration in plasma after 20 minutes” value [15] was 15.91 ± 4.21 µg/mL, the “concentration in plasma after 24 hours” value [15] was 4.31 ± 1.98 µg/mL and the “concentration in plasma at the twelfth hour” value [15] was 14.22 ± 3.12 µg/mL. For the same compound, the “maximum peak in plasma” value [15] was 33.81 ± 6.15 µg/mL, the “time of the maximum peak in plasma” value [15] was 90 ' and the “modifications of the electroencephalogram” value (SWISS male mice [16]) was “increase of the amplitude and a decrease of the frequency of the electroencephalogram”.

For `CCCCCCCOC(=O)[C@@H](NC(=O)Oc1ccc2c(c1)[C@]1(C)CCN(C)[C@@H]1N2C)[C@@H](C)CC` [MGS102, (3aS-cis) 1,2,3,3a,8,8a hexahydro-1,3a, 8-trimethyl-pyrrol (2,3-b) indol-5-ol-L-(3-methyl-2 carboxy-n-heptyl)-butyl-carbamate], the “decrease of the spontaneous motility (on average)” value (mouse [11]) was about -30%, the “inhibitory cerebral and serumal acetylcholinesterase activity (in words)” value [12] was “clear inhibitory dose-dependent and reversible” and the “effect on the curarization by succinylcholine compared with physostigmine” value (rabbit [13]) was “induced the same anticholinesterase effect of physostigmine”. The LD50 per os (mice (Swiss strain) [14]) was 358.3 ± 18.83 mg/kg.

With `CN1[C@@H]2C[C@@H](OC(=O)[C@H](CO)c3ccccc3)C[C@H]1[C@@H]1O[C@@H]12` [scopolamine, reference compound] the motor activity increase (motor activity [9]) was 100%, the “increase in motor activity” value (motor activity [17]) was 100% and the “increase in motor activity” value (motor activity [18]) was 100%.
